# Source: patent US10188689B2, “Method and composition for treating breast cancer” (STELLENBOSCH UNIVERSITY, priority 2014, dated 2019)
# System: Phospho-ser15-p53
# Test: Western blot of tumours from treated mice: phospho-ser15-p53
# Type: in vivo, C57BL6 mice
# Settings: tumours of Dox treated mice, seven days
# Description: Following the weighing and grouping of mice, treatment with D. viscosa extract commenced. Tumour size was measured every two days by taking measurements in two perpendicular dimensions using digital calipers. The D. viscosa extract was administered through raspberry flavoured jelly blocks. Mice were conditioned to the taste of the jelly four days before treatment began. Human dosage (5.24 mg/kg/day) and the Km factor were used for dose translation based on body surface area to calculate animal dosage to be administered (Reagan-Shaw et al., 2007). On the day of treatment, mice were put in separate cages and given a 1 cm×1 cm block of jelly injected with 146 μL extract per jelly block (0.065 mg/g average bodyweight) at dusk every day, for a period of seven days. The day after the last treatment, mice were sacrificed by decapitation, where after tumours were harvested and frozen at −80° C. until needed.
# Protein extraction from cells took place after the 24 hour treatment period. The medium was aspirated and the flasks were placed on ice. […] Cell lysates were then centrifuged at room temperature for 10 minutes at 8000 rpm, where after the protein content of each lysate was determined using the Bradford method (Bradford, 1976). […] After extraction protein content was determined with the Bradford method (Bradford, 1976) and stored at −80° C. until analysis, […]
compound,measurement,value
"COc1cccc2c1C(=O)c1c(O)c3c(c(O)c1C2=O)C[C@@](O)(C(=O)CO)C[C@@H]3O[C@H]1C[C@H](N)[C@H](O)[C@H](C)O1 [Dox, doxorubicin]",level of p53 in tumours (ratio of phospho-ser15-p53 to total p53),5.3±1.016 fold increase relative to cont
